Key:
AQP4 = molecular target: T1, AQP4 (Homo sapiens, UniProt P55087); assay: Oocyte swelling assay: water permeability (Pf) of AQP4-expressing oocytes by videomicroscopy, block or % stimulation; type: cell-based
T1 construct: expressed in transfected cells; host or cells: Xenopus oocytes
Source text: A method for screening compounds for their ability to modulate aquaporin activity based on a water permeability assay in Xenopus oocytes expressing aquaporins which is used to identify, assess, and characterize compounds that either block or stimulate the aquaporin channels including AQP1, AQP4 and AQP9 channels.
Selection rationale and methodology. The ability of compounds, analogs and/or agents to block an aquaporin channel was quantified by videomicroscopic analyses of cross-sectional area of AQP-expressing oocytes as a function of time in a defined osmotic gradient, allowing the calculation of the water permeability factor (Pf), statistical evaluation of significant differences in the rate of water entry, and definition of dose response curves with IC50 values (concentration required for half-maximal block).
This compound evaluation method has been utilized with AQP1,-4,-5, and -9 channels. Observations of channel stimulation were made using the same assay method, however, the results were reported as % stimulation over control at a given concentration. […] TEA is known as a blocker of K^+ channel subtypes and nicotinic acetylcholine receptors. TEA sensitivity of AQP1 was removed by site-directed mutagenesis of tyrosine 186 to phenylalanine (Y186F) in the outer vestibule of the water pore, and confirmed that the inhibitory action of TEA is not due to nonspecific effects on endogenous channels (Brooks et al., 2000).

[1] = tested on: cerebral ischemia (MCAO model); assay: Middle cerebral artery occlusion (MCAO) model, 1 h ischemia and 24 h reperfusion; type: in vivo, mice; details: 60 mg/kg intravenous single bolus 10 min before reperfusion, 1 h ischemia
Source text: Anatomical measures of infarct size, brain volume, neurological assessments, and mortality rate can be used to assess the consequences of middle cerebral artery occlusion (MCAO) model in mice. The rodent MCAO model, an accepted model of cerebral ischemia and reperfusion (Clark et al., 1997), uses a silicone-coated filament to promote cerebral artery occlusion (Migliati et al., 2001). An innovative method to measure effective occlusion in real time is by laser Doppler monitoring of blood flow rate
Typical procedure for MCAO model in mice: Wild-type C57BL/6J male mice at 9-11 weeks old are anesthetized, and cerebral blood flow is recorded as baseline using laser Doppler. The monofilament is placed in the internal common carotid and advanced to the ostia of the middle cerebral artery. […] After 24 h, animals are evaluated for neurological, behavioral, and general deficits, and then sacrificed for anatomical analysis of the infarcted and contralateral control hemispheres. […]
FIG. 6 illustrates cerebral edema and infarct size in mice subjected to one hour of ischemia and 24 hours of reperfusion, with and without bumetanide (60 mg/kg) administered intravenously in a single bolus at 10 min before reperfusion. Stained with 2% TTC, the infarcted area is white; areas are analyzed using morphometric software by researchers blinded to the treatment group.

T1 sequence (P55087 whole entry, species assumed): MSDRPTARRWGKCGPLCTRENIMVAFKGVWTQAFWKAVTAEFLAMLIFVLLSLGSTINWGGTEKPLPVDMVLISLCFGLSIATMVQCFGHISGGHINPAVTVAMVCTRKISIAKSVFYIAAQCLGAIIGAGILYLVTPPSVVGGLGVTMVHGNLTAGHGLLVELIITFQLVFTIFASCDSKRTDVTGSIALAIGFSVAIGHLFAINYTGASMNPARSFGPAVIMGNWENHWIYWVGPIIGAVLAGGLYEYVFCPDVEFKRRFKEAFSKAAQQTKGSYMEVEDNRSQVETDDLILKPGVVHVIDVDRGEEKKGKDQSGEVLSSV

block of swelling rate in AQP4-expressing oocytes (AQP4; extracellular application): Dose-dependent block | block of swelling in AQP4-expressing oocytes (AQP4; internal injection into the oocyte (intracellular)): improved block at lower concentrations
SMILES: CCCCNc1cc(C(=O)O)cc(S(N)(=O)=O)c1Oc1ccccc1 [bumetanide]
cerebral edema and infarct size, statistical significance (p<0.06) [1]: does not meet criteria, but indicates promise

— patent US9248131B2, “Aquaporin modulators and methods of using them for the treatment of edema and fluid imbalance” (THE ARIZONA BOARD OF REGENTS ON BEHALF OF THE UNIVERSITY OF …, priority 2006, dated 2016)
